The record followed here is article PMC11460631, “Inhibition of transient receptor potential vanilloid 3 channels by antimalarial hydroxychloroquine alleviates TRPV3-dependent dermatitis” (The Journal of Biological Chemistry, 2024).

Where two headings read alike, the source gives them in different places.

Experiment [1] has as its system TNF-α, IL-6, IgE, IL-4 in mouse dorsal skin tissues. Description: Carvacrol-induced AD-like mouse model: inflammatory factors by ELISA. It is filed as in vivo. As to the method: (§1) We therefore generated a carvacrol-induced AD mouse model to test the effect of HCQ.
(§2) To generate an AD-like mice model, 2% carvacrol (dissolved in 30% ethanol solution) was topically smeared onto the mice dorsum 1 day after hair removal with a depilatory cream (Vetin Depilatory Cream). Mice received a topical administration of an equal volume (200 μl) of 2% carvacrol or in the presence of 2 mg/ml HCQ. […] After the application of carvacrol for 5 days, the external appearance of mice was photographed and then sampled. The external appearance was graded based on three aspects: thickness, erythema/bleeding, and dryness/desquamation, with severity assessed on a score of 0 to 4. The degree of thickness was measured by the thickness of the skin in H&E staining. Skin tissues were either fixed in 4% paraformaldehyde or placed in PBS buffer containing 1% protease inhibitor, facilitating subsequent steps of paraffin embedding or ELISA experiments.
Animal skin tissues were placed in PBS buffer containing 1% protease inhibitors, then homogenized, and centrifuged for supernatants. Cytokine concentrations of supernatants (IL-4, IL-6, TNF-α, and IgE) were measured using ELISA kits (Tsingke) according to the manufacturer's instructions. The absorption at 450 nm was measured by a microplate reader (Thermo Multiskan MK3).
A general note: ELISA stands for enzyme-linked immunosorbent assay.

The next experiment concerns the target T1, TRPV3 (Homo sapiens, UniProt Q8NET8).
T1 construct: YFP or GFP; expressed in transfected cells; host or cells: HEK293T
T1 sequence (Q8NET8 1-790): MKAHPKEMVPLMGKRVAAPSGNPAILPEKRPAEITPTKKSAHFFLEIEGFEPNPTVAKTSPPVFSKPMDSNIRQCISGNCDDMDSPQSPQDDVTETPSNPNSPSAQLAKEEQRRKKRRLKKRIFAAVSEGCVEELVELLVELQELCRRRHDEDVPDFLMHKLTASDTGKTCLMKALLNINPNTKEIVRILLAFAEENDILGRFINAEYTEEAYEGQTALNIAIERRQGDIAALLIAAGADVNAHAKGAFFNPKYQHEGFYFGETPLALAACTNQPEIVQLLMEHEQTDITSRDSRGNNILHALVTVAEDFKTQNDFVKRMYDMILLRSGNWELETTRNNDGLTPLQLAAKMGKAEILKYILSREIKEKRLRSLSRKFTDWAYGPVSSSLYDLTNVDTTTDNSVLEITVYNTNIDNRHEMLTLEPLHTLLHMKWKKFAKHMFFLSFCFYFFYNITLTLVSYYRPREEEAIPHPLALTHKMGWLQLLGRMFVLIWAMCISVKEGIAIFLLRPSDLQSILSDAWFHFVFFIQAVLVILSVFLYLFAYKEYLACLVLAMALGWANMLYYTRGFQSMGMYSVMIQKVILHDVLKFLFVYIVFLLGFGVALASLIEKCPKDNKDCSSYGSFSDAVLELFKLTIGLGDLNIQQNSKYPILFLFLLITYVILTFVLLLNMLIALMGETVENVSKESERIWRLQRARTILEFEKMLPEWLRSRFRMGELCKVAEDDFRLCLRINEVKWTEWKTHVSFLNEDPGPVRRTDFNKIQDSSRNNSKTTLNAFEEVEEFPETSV
The experiment is described as follows: Whole-cell patch-clamp recordings of TRPV3 currents in transfected HEK293T cells. It is filed as cell-based. Conditions: for IC50: ± 80 mV. As to the method:
HEK293T cells are cultured using Dulbecco's modified Eagle's medium containing 10% fetal bovine serum and 1% penicillin-streptomycin in a cell incubator with 5% CO2 at 37 °C. Plasmids of murine TRPV1, TRPV4, TRPM8, and human TRPV3, TRPA1 are labeled with YFP or GFP as indicators for subsequent electrophysiological recordings. Complementary DNA constructs of ion channels were transiently transfected with Lipofectamine 3000 (Invitrogen). And 12 to 18 h after transient transfection, electrophysiological recordings were performed.
Patch-clamp recordings were carried out with a HEKA EPC10 amplifier controlled by PatchMaster software (HEKA; https://www.heka.com/products/products_main.html#soft_pm) ([36]). Patch pipettes were prepared from borosilicate glass and fire-polished to the resistance of 3 to 8 MΩ by P-97 puller for whole-cell recordings. For single-channel recordings, patch pipettes were fire-polished to a higher resistance of 6 to 10 MΩ. Both bath solution and pipette solution contained 130 mM NaCl, 10 mM glucose, 0.2 mM EDTA, and 3 mM Hepes and were adjusted to pH 7.2 to 7.4 with NaOH. Whole-cell recordings and single-channel recordings were performed at ± 80 mV. The current was sampled at 10 kHz and filtered at 2.9 kHz. All recordings were performed at room temperature (25 °C). A gravity-driven system (RSC-200, Bio-Logic) with freely rotated perfusion tubes was used for the perfusion of ligands. Bath and ligand solutions were delivered through separate tubes to minimize the mixing of solutions. Patch pipette holding cells were placed in front of the perfusion tube outlet for perfusion.
All data from whole-cell recordings were analyzed in Igor Pro (WaveMetrics). IC50 values were determined by fitting the Hill equation to concentration-response relationships. Data are shown as mean ± SEM. Statistical significance between two groups was conducted with an unpaired two-tailed t test, and statistical significance among multiple groups was conducted with one-way ANOVA using Dunnett’s multiple comparisons test or Tukey's post hoc test. Differences were regarded as statistically significant with ∗, p < 0.05; ∗∗, p < 0.01; ∗∗∗, p < 0.001; ∗∗∗∗, and p < 0.0001; N.S., no significance.
For orientation: In patch-clamp work, channel activity is measured electrically.

Another experiment relates to C57BL/6J male mice. Description: Carvacrol-induced AD-like mouse model: skin appearance scores and H&E epidermal thickness. The experiment is classed as in vivo. How it is done: as §1
To investigate the effect of HCQ on carvacrol-induced dermatitis in animals, C57BL/6J male mice (aged 6 weeks) were obtained from the Animal Experimental Center of Hangzhou Medical College (Hangzhou, Zhejiang Province). Mice were housed and maintained in an environment with a 12-h light/dark cycle and a controlled temperature of 22.0 ± 2.0 °C. Food and water were accessible ad libitum. All the animal procedures were approved by the Institutional Animal Care & Use Committee of Zhejiang Center of Laboratory Animals (ZJCLA).
as §2
Mice were sacrificed 24 h after the last dose of treatment. Mouse dorsal skin was removed with scissors and forceps before being fixed with 4% paraformaldehyde. Paraffin-embedded tissues were sectioned and stained with H&E. Pictures of stained sections were acquired with a Nikon Eclipse Ti-S microscope with a charge-coupled device camera (DS-Ri2, Nikon).

[2] abbreviates: mouse tissues, HCQ 2 mg/ml topical with 2% carvacrol, 5 days.

The term IC50 denotes the concentration at which inhibition is half-maximal. As usually defined, the inhibition is the percentage by which the read-out fell short of the control.

On to `CCN(CCO)CCCC(C)Nc1ccnc2cc(Cl)ccc12` (stereo not shown) [HCQ, hydroxychloroquine], for which, in experiment [1] (HCQ 2 mg/ml topical with 2% carvacrol, 5 days), the “suppression of serum IgE levels” value is on record as 60.22 ± 11.26%. In addition, the “IL-4 levels compared to the model group” value in experiment [1] (mouse tissues, HCQ 2 mg/ml or DXM 1 mg/ml topical with 2% carvacrol) is recorded as “no significant difference”. In addition, in experiment [1] (setting [2]), the “inhibition of release of carvacrol-induced IL-6” value was 77.09% ± 5.38% and the “inhibition of release of carvacrol-induced TNF-α” value is 88.10% ± 4.12%. Further, the IC50 on TRPV3 (HEK293T cells expressing TRPV3, whole-cell, 1 mM 2-APB, read-out: IC50, inhibition of TRPV3 currents induced by 1 mM 2-APB) was determined as 51.7 ± 4.78 µM. Moreover, the inhibition at 100 µM at TRPV3 (HEK-293T, 100 μM HCQ, 1 mM 2-APB, read-out: inhibition of WT TRPV3 channels) came to 75.6%. The 50% inhibitory concentration (IC50) on TRPV3 (whole-cell, 1 mM carvacrol, read-out: IC50, inhibition of TRPV3 current induced by carvacrol) stood at 1.07 ± 0.38 µM. In the experiment with C57BL/6J male mice (score of 0 to 4, topical, 5 days, 2% carvacrol alone or with HCQ 2 mg/ml), the dry desquamation score is recorded as 1.50 ± 0.22. In addition, the erythema score with C57BL/6J male mice (score of 0 to 4, topical, 5 days, 2% carvacrol alone or with HCQ 2 mg/ml or DXM 1 mg/ml) was 1.67 ± 0.33. In addition, the “epidermal thickness (H&E staining)” value with C57BL/6J male mice (topical with 2% carvacrol, once a day for 5 days, HCQ 2 mg/ml, DXM 1 mg/ml, 200 μl) is 51.49 ± 3.01 μm.
